Series [1] concerns Pure tubulins (microtubule polymerization). Briefly: In vitro tubulin polymerization assay. The series is classed as biochemical. Here is the method: To test the models predicted by the molecular docking analysis, TP4 mutants were generated by substitution of Phe1, Ile16, and Arg23 with either Gly or Ala (mutant names and sequences are provided in Figure 5A), and the mutants were analyzed for their interaction with α-Tubulin. The sequence of TP4 is expected to form an α-helix, see Supplementary Figure S1A.
Figure 5 TP4 inhibits microtubule polymerization. (A) Sequences of the TP4 wild type (WT) and mutants. Letters shown in red indicate substituted amino acids. (B,C) Dynamic measurement of the microtubule polymerization. Pure tubulins were assembled in the presence of TP4 (WT), TP4 mutants (MT1-6). H2O, paclitaxel, and nocodazole served as vehicle, positive, and negative controls, respectively.
The Microtubule/Tubulin In Vivo Assay (Cytoskeleton, Inc., Denver, CO, USA) was performed using the “inhibitor condition” provided in the manufacturer’s instructions. Microtubule regrowth was assayed as described previously. Briefly, cells with or without 3 h, 10 μg mL^−1 TP4 treatment were incubated with nocodazole (20 μM) for 6 h at 37 °C. After washing with warm culture medium, cells were incubated for a further 0, 10, or 30 minutes. Fixed cells were stained with the α-Tubulin antibody and for F-actin. Confocal images were acquired on an FV3000 microscope (Olympus Corp., Tokyo, Japan).

Another series relates to A549 cells. Briefly: Cell viability (CellTiter-Glo ATP assay) in A549 cells. The series is classed as cell-based, human. The note with it: 24 h; for relative ATP levels (cell viability): CellTiter-Glo ATP assay, luminescence, mean ± SD of three independent assays, n ≥ 5 wells per dose. How it is done: Figure 6 Loss of cancer-killing ability in TP4 mutants. (A) Cell viability in A549 cells was determined by the adenosine triphosphate (ATP) assay following treatment with varying doses of TP4 and TP4 mutants for 24 h. Multiple wells were analyzed for each assay. Results represent the mean ± SD. Statistical comparisons between groups were performed using two-way ANOVA: a, not significant; b, p < 0.05; d, p < 0.001. Statistical analyses are shown in Supplementary Table S1. (B) Cells were stained for TP4 (WT panel), FITC (MT-1 to MT-6 panels), α-Tubulin, and F-actin. Hoechst33342 was used for nuclei staining. Boxed regions are magnified in the furthest right panels. […] Bar: 20 μm.
The A549 cell line (Bioresource Collection and Research Center (BCRC) 60074) was purchased from the BCRC and cultured according to BCRC recommendations. For the cell viability and transfection assay, 4–5 × 10^3 cells were seeded into the wells of a 96-well plate and cultured overnight. Cells were then treated according to the indicated doses and times. Cell viability was quantified using the CellTiter-Glo® Luminescent Cell Viability Assay kit (ATP assay) (Madison, WI, USA) as previously described. The luminescent signal was measured using a photometer (SpectraMax® i3, Molecular Devices, Wals, Austria).
For the multi-well based assay, cells were plated at least in quadruplicate. Data were collected from independently repeated experiments (N ≥ 3) and were analyzed by Prism5 software (GraphPad Inc., La Jolla, CA, USA). Statistical significance was determined by a two-tailed Student’s t-test or one-way/two-way analysis of variance (ANOVA) with a Bonferroni post hoc test. Differences were considered statistically significant at p < 0.05. […]
Supplementary Table S1. Cellular toxicit y of TP 4 to A549 cells was evaluated b y cell viability. Results of statis tical tests on data in Figu re 6A are shown. Multiple wells were anal yzed for each ex periment (n ≥ 5 wells per do se). Results represent the mean ± SD from three independent assays. Statistical comparisons between mock versus TP4 treatment groups were performed using two -way ANOVA anal ysis with Bonferroni post-hoc test: a, not signi ficant; b, P < 0.05; c, P < 0.01; d, P < 0.001. […]
(A-G) Th e helical projection plot and s tructural model o f TP4 (A) and TP4 variants (MT-1 to MT-6, B-G ). The helical proj ecti on was produced b y an online helical wheel projection program (http://rzlab.ucr.edu/scripts/wheel/wheel.cgi). Amino acid residues are numbered and each amino acid is connected with lines to indicate its relative position along the helix. The hydrophobic residues are shown as diamonds ; h ydrophilic residues are circles. Residues with negative charge are shown as trian gles and positively charged residues are pentagons. Hydrophobicity is color coded. The

Consider “FIHHIIGGLFSAGKAIHRLIRRRRR [TP4, synthesized Nile tilapia-derived antimicrobial peptide, Tilapia piscidin 4]”, for which the “effect on microtubule polymerization” value in series [1] (10 μg mL^−1 peptide, dynamic measurement, Figure 5B) is recorded as “sufficient to disrupt microtubule polymerization”; in series [1] (20 μg mL^−1 peptide, compared to controls, Figure 5C), “completely inhibited microtubule polymerization”. Further, the “relative ATP levels (cell viability)” value in the series on A549 cells (3.35 µM) is listed as 0.580±0.061; in the series on A549 cells (5.03 µM), 0.211±0.030; in the series with A549 cells (6.71 µM, listed as WT), 0.129±0.034; in the series on A549 cells (6.71 µM, listed as wild-type TP4, 6.71 µM), 0.130 ± 0.036; in the series with A549 cells (20.12 µM, listed as WT) it was 0.009±0.010; in the series on A549 cells (20.12 µM, listed as wild-type TP4, 20.12 µM), 0.010 ± 0.010. Besides, the “cytotoxicity to A549 cells (in words)” value in the series with A549 cells (doses 3.35-20.12 µM, ATP assay, Figure 6A) is on record as “obvious dose-dependent cytotoxic effects”.
